Our source for the GI50 and TGI values is PubChem BioAssay (NCI).

Common to all, as to experiment: NCI anticancer screen, dose series, 48 h
In test [1] the test system is NCI/ADR-RES ovarian.
The test system of test [2] is TK-10 renal.
Test [3] deals with MALME-3M melanoma.
Test [4] concerns CCRF-CEM leukemia.
For test [5], the system named is HL-60(TB) leukemia.
In test [6] the test system is U251 CNS.
Test [7] concerns HCT-116 colon.
Test [8] relates to 786-0 renal.
Test [9] concerns K-562 leukemia.
Test [10] relates to HCT-15 colon.

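Cells were grown in 96-well plates and exposed to each compound for 48 hours at five concentrations; endpoints were interpolated linearly between bracketing concentrations, or set to the highest concentration if not reached. GI50 is the concentration that inhibits growth by half. At the TGI there is no net growth.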

Regarding `Cc1[nH]ncc1-c1cc2nc(C3CC4CCN3CC4)[nH]c(=O)c2s1` (stereo not given), the GI50 in [1] is 11.8 µM; in [2] it was 1.9 µM; in test [3], 6.02 µM; in test [4], 2.36 µM; in test [5] it was 2.06 µM; in test [6] it was 2.52 µM. Moreover, the GI50 was 1.16 µM in [7], 2.92 µM in [8], 6.54 µM in test [9] and 2.44 µM in test [10]. The TGI in [1] is over 100 µM; in test [2], over 100 µM; in test [3], 74 µM; in [4], over 100 µM; in [5], 6.15 µM; in [6], over 100 µM. Besides, the TGI in test [7], in test [8], in test [9] and in [10] was over 100 µM each time.
Regarding `Cc1ccccc1NC(=S)Nc1ccccn1`, the GI50 in [1], in test [2], in test [3], in [4], in test [5] and in [6] was over 100 µM throughout. Moreover, the GI50 in [7], in test [8], in test [9] and in test [10] was over 100 µM each time. In addition, the TGI in test [1], in test [2], in [3], in test [4], in test [5] and in test [6] was over 100 µM in each case. Moreover, the TGI in test [7], in test [8], in [9] and in [10] was over 100 µM throughout.
